This note sets out measurements from article PMC4626104, “Inhibition on Proteasome β1 Subunit Might Contribute to the Anti-Cancer Effects of Fangchinoline in Human Prostate Cancer Cells” (PLoS ONE, 2015).

Assay [1] addresses T1, recombinant human proteasome β1 subunit (Homo sapiens, UniProt P28072).
T1 construct: His-Tag; made in house; host or cells: Escherichia coli
T1 sequence (P28072 1-239): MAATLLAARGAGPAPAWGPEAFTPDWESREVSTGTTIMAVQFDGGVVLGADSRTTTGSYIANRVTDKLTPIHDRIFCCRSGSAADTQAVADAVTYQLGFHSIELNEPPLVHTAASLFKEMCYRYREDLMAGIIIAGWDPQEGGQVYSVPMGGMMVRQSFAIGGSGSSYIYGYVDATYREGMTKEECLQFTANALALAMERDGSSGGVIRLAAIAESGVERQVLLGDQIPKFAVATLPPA
The assay can be described thus: Enzyme activity of recombinant proteasome catalytic β1 subunit (Z-LLE-AMC). The assay is classed as biochemical. The note with it: 50 μM Z-LLE-AMC, 2 h incubation. Here is the method:
Briefly, catalytic activity of the recombinant human proteasome β1 subunit was assayed by adding recombinant β1 subunit protein (30 μg) to 100 μL of proteasome activity assay buffer (10 mM Tris-HCL, pH 7.8, 5 mM adenosine triphosphate, 0.5 mM dithiothreitol and 5 mM MgCL2•6H2O) containing 50 μM Z-LLE-AMC in the presence of fangchinoline or tetrandrine at different concentrations or not. The hydrolase activity of the proteasome catalytic β1 subunit could release the fluorogenic AMC component from substrate Z-LLE-AMC and the AMC release was measured after 2 h incubation using a Microplate Reader Bio-Rad 550 with excitation and emission wavelengths of 360 and 465 nm, respectively.

The target of assay [2] is T1, recombinant human proteasome β1 subunit. The experiment in a line: Surface plasmon resonance (Biacore) binding assay. The method, then:
The recombinant human proteasome β1 subunit, product of PSMB6 gene, was expressed as His-Tag proteins using Escherichia coli, and then purified by affinity chromatography as reported in our previous study. The binding affinities of fangchinoline or tetrandrine to recombinant proteasome catalytic β1 subunit, were assayed in vitro using an Biacore 3000 instrument (Biacore AB, Rapsgatan 7, S-754 50 Uppsala, Sweden) as reported before. Briefly, recombinant proteasome β1 subunit protein was immobilized on a CM5 sensor chip as ligand in 11624.5 RU with N-ethyl-N’-(3-dimethylaminopropyl) carbodiimide and N-hydroxysuccinimide according to the standard primary amine-coupling procedures, and HBS-EP (10 mM HEPES, 150 mM NaCl, 3 mM EDTA, 0.005% (v/v) surfactant P20, pH 7.4) was used as the running buffer. Equilibration of the baseline was performed by a continuous flow of HBS-EP through the chip surface for 1 to 2 h. Biacore data were collected at 25°C with HBS-EP as the running buffer at a constant flow of 20 μL/min. Fangchinoline or tetradrine was serially diluted into the running buffer to 0, 2.4, 3.43, 4.90, 7.0, 10 and 20 μM. The samples were injected into the channels at a flow rate of 20 μL/min, followed by washing with the running buffer. The binding responses were recorded continuously in response units (RU) at a frequency of 1Hz as sensorgrams and presented as a function of time. The association (k a) and dissociation (k d) rate constants, the equilibrium dissociation constant ( KD=kd/ka ) were determined by analysis of the sensorgram-curves obtained at different concentrations of the compound by use of BIA evaluation software version 3.1 (Biacore) and the 1:1 Langmuir binding fitting model.
For orientation: SPR reads the build-up and loss of mass on a sensor chip optically.

For `COc1ccc2cc1Oc1ccc(cc1)C[C@H]1c3cc(c(OC)cc3CCN1C)Oc1c(OC)c(OC)cc3c1[C@H](C2)N(C)CC3` [tetrandrine, reference compound], the “Inhibition of enzyme activity of recombinant proteasome β1 subunit” value in assay [1] is “directly inhibit”. Also, in assay [2] (Biacore, 25°C, 1:1 Langmuir model), the “Dissociation (k d)” value came out at 0.0162 S^-1. For the same compound, the Kd in assay [2] (Biacore, 25°C, 1:1 Langmuir model, read-out: Equilibrium dissociation (K D)) worked out at 5.61 µM. Besides, the kon in assay [2] (pH 7.4, read-out: Association (k a)) came to 2890 M⁻¹ s⁻¹.
